This is an account of results in paper PMC8557901 (Microbiology Spectrum, 2021).

Structures can show the parent of a compound that is named as a salt. Bounds are passed on as bounds.

Series [1] deals with P. falciparum strain K1 in RBC. As to the kind of experiment: In vitro chemosensitivity assay, blood stage P. falciparum K1 (SYBR green I). The settings on record: Plasmodium falciparum, K1; erythrocytic stage, 72 h; read-out: EC50 (μM) for P. falciparum strain K1 in RBC. It is filed as cell-based. The procedure: Maintenance in continuous culture was done as described previously by Trager and Jensen ([46]). Cultures were maintained in fresh A+ human erythrocytes (EFS [French Blood Bank]) at 2.5% hematocrit in complete medium (RPMI 1640 with 25 mM HEPES, 25 mM NaHCO3, 10% A+ human serum) at 37°C under a reduced-O2 atmosphere (gas mixture of 10% O2, 5% CO2, and 85% N2). Parasitemia was maintained daily between 1% and 3%. The P. falciparum drug susceptibility test was carried out by comparing quantities of DNA in treated and control cultures of parasites in human erythrocytes according to a SYBR green I fluorescence-based method ([50]) using a 96-well fluorescence plate reader. Compounds, previously dissolved in DMSO (final concentration, less than 0.5% vol/vol), were incubated in a total assay volume of 200 μl of synchronized culture suspension (2% hematocrit and 0.4% parasitemia) for 72 h in a humidified atmosphere (85% N2, 10% O2, and 5% CO2) at 37°C in 96-well flat-bottom plates. Duplicate assays were performed for each sample. After incubation, plates were frozen at −20°C for 24 h. Then, the frozen plates were thawed for 1 h at 37°C. Fifteen microliters of each sample was transferred to 96-well flat-bottom black plates (Greiner Bio-one) already containing 15 μl of the SYBR green I lysis buffer (2× SYBR green I, 20 mM Tris base, pH 7.5, 20 mM EDTA, 0.008% [wt/vol] saponin, 0.08% [wt/vol] Triton X-100). […] Plates were incubated for 15 min at 37°C and then read on a Tecan Infinite F-200 spectrophotometer with excitation and emission wavelengths at 485 and 535 nm, respectively. […] EC50K1 values represent the mean values calculated from three independent experiments.

Series [2] is described as follows: Cytotoxicity on HepG2 cell line (MTT). It is filed as cell-based. The settings on record: human, HepG2 cells. As for the experimental part: The evaluation of the cytotoxicity of the tested molecules on the HepG2 cell line was performed according to the method of Mosman ([42]) with slight modifications. […] Triplicate assays were performed for each sample. Each well was then examined under a microscope to detect possible precipitate formation before the medium was aspirated from the wells. An amount of 100 μl of MTT solution (0.5 mg/ml in medium without FBS) was then added to each well. […] After this time, the MTT solution was removed and DMSO (100 μl) was added to dissolve the resulting blue formazan crystals. Plates were shaken vigorously (700 rpm) for 10 min. The absorbance was measured at 570 nm with 630 nm as the reference wavelength using a Tecan Infinite F-200 microplate reader. DMSO was used as a blank and doxorubicin as a positive control. Cell viability was calculated as the percentage compared to the control (cells incubated without compound). […] CC50 values represent the mean values calculated from three independent experiments.

For series [3], the system named is P. yoelii in HepG2-CD81 cells. As to the kind of experiment: Hepatic stage of P. yoelii in HepG2-CD81 cells. It is filed as cell-based. The following applies: Plasmodium yoelii; hepatic schizonts. The procedure: Hepatocytes were seeded into collagen-coated black 96-well plates and maintained at 37°C in 5% CO2 in complete medium. […] The infected culture plates were centrifuged for 10 min at 900 × g, allowing fast parasite sedimentation, and further incubated with serial dilutions of M1. […] DMSO was used as a negative control. The number, size, and shape of the parasites were determined using a CellInsight high-content screening platform equipped with Studio HCS software (ThermoFisher Scientific). The parasite immunostaining was done using an […]70 antibody raised in mice and a secondary anti-mouse antibody coupled to Alexa Fluor 488 ([43]). […] Thirty-seven images, representing more than 95% of the total bottom surface area of a culture well in 96-well plates, were captured for analysis. The custom script used for counting and measuring parasites first required identification of the objects based on a fluorescence intensity threshold. The object identity was then further validated based on size and morphological (shape) criteria. The presence of DAPI-associated fluorescence in the selected objects allowed their final selection and the rejection of false positives. […] The parasitic size reduction was calculated on the average object area using the total surface area of each selected object (μm^2).

The test system of series [4] is P. falciparum liver-stage parasites in human primary hepatocytes. As to the kind of experiment: In vitro liver-stage development, P. falciparum in human primary hepatocytes. In kind it is cell-based, Plasmodium falciparum. From the text: (§1) Primary human hepatocytes were isolated from liver segments obtained from adult patients undergoing partial hepatectomy (Service de Chirurgie Digestive, Hépato-Bilio Pancréatique, Hôpital Pitié Salpêtrière, Paris, France). Primary simian hepatocytes were isolated from liver segments collected from healthy Macaca fascicularis monkeys from CEA, Fontenay aux Roses, France. All hepatocytes were obtained using collagenase perfusion as previously described ([40]). […] Primary murine hepatocytes were isolated from liver segments collected from BALB/c mice. Human and murine hepatocytes were used directly after their isolation. Cells were seeded in 96-well plates (Falcon; Becton Dickinson Labware Europe, France) coated with collagen I (BD Bioscience, USA) at a density of 80,000 cells per well. […] For human hepatocytes, the complete medium was supplemented with 2% dimethyl sulfoxide (DMSO; Sigma-Aldrich, USA) before infection to preserve their differentiation.
(§2) On the day of infection, 3 · 10^4 sporozoites of P. falciparum, P. yoelii, and P. cynomolgi were added to their respective host cell cultures (human, murine, and simian). The infected culture plates were centrifuged for 10 min at 900 × g, allowing fast parasite sedimentation, and further incubated with serial dilutions of M1. Culture medium containing the appropriate drug concentration was refreshed daily, and cells were fixed at 48 h postinfection (p.i.) for infections with P. yoelii, 6 days p.i. for P. falciparum, or 8 days p.i. for P. cynomolgi. For the in vitro sporozoite invasion experiments, P. falciparum sporozoites were preincubated with 1, 10, and 100 μM M1 for 1 h at room temperature before hepatocyte infections. Three hours later, after sporozoite penetration into hepatocytes, cultures were washed and then further incubated with or without the presence of the drug during 6 days. DMSO was used as a negative control.
(§3) The number, size, and shape of the parasites were determined using a CellInsight high-content screening platform equipped with Studio HCS software (ThermoFisher Scientific). […] Host cell and parasite nuclei were labeled with DAPI (4′,6-diamidino-2-phenylindole). […] The custom script used for counting and measuring parasites first required identification of the objects based on a fluorescence intensity threshold. The object identity was then further validated based on size and morphological (shape) criteria. The presence of DAPI-associated fluorescence in the selected objects allowed their final selection and the rejection of false positives. […] The parasitic size reduction was calculated on the average object area using the total surface area of each selected object (μm^2).

For series [5], the system named is P. yoelii (GFP-luc strain). In words: In vivo liver-stage assay in mice infected with P. yoelii sporozoites. Also on record: species or system BALB/c mice. The following applies: 50 mg/kg; blood smears days 3 and 6. The procedure: Five mice per treatment group were used. Experimental groups were treated with 50 and 100 mg/kg of M1 intraperitoneally (i.p.). Untreated infected mice and noninfected mice (infection controls), as well as primaquine-treated (50 mg/kg) mice (control drug), were also included. The drugs were administered on days −1, 0, and +1, and mice were challenged on day zero by retroorbital injection of P. yoelii (GFP-luc strain) sporozoites (10,000 per mouse). In vivo bioluminescence imaging was performed 44 h postinfection on day 2, to assess liver-stage development. When parasites were detected in the liver, treatment was continued until day 5 and in vivo imaging was performed on days 3 and 6, to evaluate a prepatent period for the blood-stage parasites in mice after the sporozoite inoculation. In vivo imaging and blood smears were performed to monitor blood-stage development using methods described previously ([45]). This experiment was performed twice.
IVIS Spectrum (Caliper Life Science, Hanover, MD) was used to capture bioluminescence signals. Prior to analysis, the mice were injected i.p. with D-luciferin (100 mg/kg), anesthetized with isoflurane, and imaged 10 min postinjection. Images were analyzed using the Living Image 3.0 software (Caliper Life Sciences, Hanover, MD).
In order to study the in vivo efficacy of M1 without any hepatic CYP metabolism, we conducted an experiment using 1-aminobenzotriazole (ABT), a nonselective inhibitor of cytochrome P450 enzymes ([34], [35]). ABT was administered to mice i.p. 1 h before each treatment with 50 mg/kg gamhepathiopine for 3 days starting from the day before sporozoite inoculation.

The test system of series [6] is P. yoelii liver-stage parasites in murine primary hepatocytes. In words: In vitro liver-stage development, P. yoelii in murine primary hepatocytes. It is filed as cell-based, Plasmodium yoelii.
Excerpt: P. yoelii 230-GFP-Luc sporozoites are mutant parasites expressing a green fluorescent protein (GFP)-luciferase cassette generated by the gene out marker out (GOMO) strategy ([39]).
as §1, §2, §3

For series [7], the system named is P. falciparum sporozoites invading primary human hepatocytes. As to the kind of experiment: Hepatocyte invasion by preincubated P. falciparum sporozoites. The settings on record: reference compound; all concentrations tested. The procedure: as §2, §3
The test system of series [8] is P. cynomolgi liver-stage parasites in simian primary hepatocytes. As to the kind of experiment: In vitro liver-stage development, P. cynomolgi in simian primary hepatocytes. It is filed as cell-based, Plasmodium cynomolgi.
Excerpt: as §1, §2, §3

`CC(C)(C)Nc1nc2cc(-c3ccc(C=O)cc3)sc2c(=O)[nH]1` [Metabolite 8, 4-(2-(tert-Butylamino)-4-oxo-3,4-dihydrothieno[3,2-d]pyrimidin-6-yl)benzaldehyde] returned a melting point of 296 °C. Moreover, the EC50 in [1] was 3.1 µM. For the same molecule, the CC50 at 72 h in series [2] was 25.3 µM.

Turning to `CC(C)(C)Nc1nc2cc(-c3ccc(C(=O)O)cc3)sc2c(=O)[nH]1` [Metabolite 10, 4-(2-(tert-Butylamino)-4-oxo-3,4-dihydrothieno[3,2-d]pyrimidin-6-yl)benzoic acid], the EC50 in series [1] and in series [3] was > 10 µM in each case. For the same molecule, in series [2], the CC50 at 72 h is > 10 µM.

For `O=C1C(O)=C([C@H]2CC[C@H](c3ccc(Cl)cc3)CC2)C(=O)c2ccccc21` [Atovaquone, reference compound], the EC50 is 0.001 µM in [1] and 0.003 µM in [3]. Further, in series [2], the CC50 at 72 h is > 15.6 µM.

As for `C[C@H]1c2cccc(O)c2C(=O)C2=C(O)[C@]3(O)C(=O)C(C(N)=O)=C(O)[C@@H](N(C)C)[C@@H]3[C@@H](O)[C@@H]21` [Doxycycline, reference compound], the concentration giving a half-maximal response (EC50) in series [1] was 6 µM. The molecule also returned a CC50 at 72 h in series [2] of 20 µM.

In the case of `COc1cc(NC(C)CCCN)c2ncccc2c1` (stereo not shown) [Primaquine, reference compound], the EC50 was 600 ± 60 nM in [4] (Plasmodium falciparum, Hepatocyte, P. falciparum in human primary hepatocytes (HH), mean ± SEM of triplicate experiments, read-out: EC50 against liver-stage parasites); 640 ± 100 nM in series [6] (Plasmodium yoelii, Hepatocyte, read-out: EC50 against liver-stage parasites); 3.6 µM in series [3]; 2720 ± 340 nM in series [8] (Plasmodium cynomolgi, Hepatocyte, P. cynomolgi in simian primary hepatocytes (SH), mean ± SEM of triplicate experiments, read-out: EC50 against liver-stage parasites). Also, the “SI (selectivity index)” value in series [4] (hepatocyte CC50/EC50, P. falciparum (HH)) is listed as 66; in series [6] (hepatocyte CC50/EC50, P. yoelii (MH)), 110; in [8] (hepatocyte CC50/EC50, P. cynomolgi (SH)), 12. Further, the “Size reduction at 10 μM (%)” value in series [4] (parasite (schizont) size, 10 μM, P. falciparum (HH)) turned out to be 100%; in [8] (parasite (schizont) size, 10 μM, P. cynomolgi (SH)), 70%. The “blood-stage parasitemia after sporozoite infection” value in [5] is reported as “remained clear of parasitemia”. In addition, the “percentage of inhibition of hepatocyte invasion” value in [7] is 100%.

In turn, `COc1cccc2c1C(=O)c1c(O)c3c(c(O)c1C2=O)C[C@@](O)(C(=O)CO)C[C@@H]3O[C@H]1C[C@H](N)[C@H](O)[C@H](C)O1` [Doxorubicin, reference compound] came in with a CC50 at 72 h in series [2] of 0.2 µM.

`CC(C)(C)Nc1nc2cc(-c3ccc(CO)cc3)sc2c(=O)[nH]1` [Metabolite 7, 2-(tert-Butylamino)-6-(4-(hydroxymethyl)phenyl)thieno[3,2-d]pyrimidin-4(3H)-one]: the melting point amounted to 264 °C. The EC50 in series [1] was 0.4 µM. The EC50 in series [3] amounted to 1 µM. In addition, in [2], it took 25 µM to reach half-maximal cytotoxicity (CC50 at 72 h).

In the case of `CC(C)(C)Nc1nc2cc(-c3ccc(C(=O)O)cc3)sc2c(=O)[nH]1` (as salt: hydrochloride) [Metabolite 10, 4-(2-(tert-Butylamino)-4-oxo-3,4-dihydrothieno[3,2-d]pyrimidin-6-yl)benzoic acid], the melting point was > 300 °C.
